Measured values as given in PubChem BioAssay AID1918993 (Molecular Pharmacology Branch, DTP, NCI, 2023).

Tested on: 233499-124-R-J3-PDC complex spheroid growth
Test: Anticancer human tumor 233499-124-R-J3-PDC patient-derived colon adenocarcinoma cell line growth inhibition [AhR]
Conditions: for IC50: curve of first compound; for viability, T/C: stronger effect = lower value
Method in brief: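 Spheroids combined tumor cells with HUVEC endothelial cells and human MSCs as stroma. AhR antagonists were paired with standard or investigational drugs, each dosed in half-log steps down from near clinical Cmax, or from 10 microM where Cmax was unknown.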

[1] = second compound 0.1 µM, first compound 0.0316 µM
[2] = second compound 0.1 µM, first compound 0.1 µM
[3] = second compound 0.1 µM, first compound 0.316 µM
[4] = second compound 0.1 µM, first compound 1 µM
[5] = second compound 0.1 µM, first compound 3.16 µM
[6] = second compound 0.1 µM, first compound 10 µM
[7] = second compound 0.316 µM, first compound 0.0316 µM
[8] = second compound 0.316 µM, first compound 0.1 µM
[9] = second compound 0.316 µM, first compound 0.316 µM
[10] = second compound 0.316 µM, first compound 1 µM
[11] = second compound 0.316 µM, first compound 3.16 µM
[12] = second compound 0.316 µM, first compound 10 µM
[13] = second compound 1 µM, first compound 0.0316 µM
[14] = second compound 1 µM, first compound 0.1 µM
[15] = second compound 1 µM, first compound 0.316 µM
[16] = second compound 1 µM, first compound 1 µM
[17] = second compound 1 µM, first compound 3.16 µM
[18] = second compound 1 µM, first compound 10 µM
[19] = second compound 3.16 µM, first compound 0.0316 µM
[20] = second compound 3.16 µM, first compound 0.1 µM
[21] = second compound 3.16 µM, first compound 0.316 µM
[22] = second compound 3.16 µM, first compound 1 µM
[23] = second compound 3.16 µM, first compound 3.16 µM
[24] = second compound 3.16 µM, first compound 10 µM
[25] = second compound 10 µM, first compound 0.0316 µM
[26] = second compound 10 µM, first compound 0.1 µM
[27] = second compound 10 µM, first compound 0.316 µM
[28] = second compound 10 µM, first compound 1 µM
[29] = second compound 10 µM, first compound 3.16 µM
[30] = second compound 10 µM, first compound 10 µM
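Further: spheroids exposed to agents for seven days before reading.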

## COc1cc(C2c3cc4c(cc3C(OC3OC5COC(C)OC5C(O)C3O)C3COC(=O)C23)OCO4)cc(OC)c1O (stereo not given) + CC(CO)NC(=O)c1cc(-c2ccc(Cl)cc2)nn(-c2cnn(C)c2)c1=O
Second compound 0.1 µM
  IC50: > 10 µM
Second compound 0.316 µM
  IC50: > 10 µM
Second compound 1 µM
  IC50: > 10 µM
Second compound 3.16 µM
  IC50: > 10 µM
Second compound 10 µM
  IC50: > 10 µM
[1]
  viability, T/C: 102%
[2]
  viability, T/C: 88.7%
[3]
  viability, T/C: 93.6%
[4]
  viability, T/C: 90.1%
[5]
  viability, T/C: 98.2%
[6]
  viability, T/C: 77.7%
[7]
  viability, T/C: 93.6%
[8]
  viability, T/C: 97.5%
[9]
  viability, T/C: 96.6%
[10]
  viability, T/C: 88.9%
[11]
  viability, T/C: 83.7%
[12]
  viability, T/C: 76.5%
[13]
  viability, T/C: 91%
[14]
  viability, T/C: 94%
[15]
  viability, T/C: 94.2%
[16]
  viability, T/C: 98.4%
[17]
  viability, T/C: 81.4%
[18]
  viability, T/C: 72.8%
[19]
  viability, T/C: 99.2%
[20]
  viability, T/C: 95.5%
[21]
  viability, T/C: 75.2%
[22]
  viability, T/C: 93.5%
[23]
  viability, T/C: 91.5%
[24]
  viability, T/C: 83.9%
[25]
  viability, T/C: 92.7%
[26]
  viability, T/C: 95.5%
[27]
  viability, T/C: 81.8%
[28]
  viability, T/C: 77.6%
[29]
  viability, T/C: 67.4%
[30]
  viability, T/C: 57.3%

## Nc1ncn(C2CC(O)C(CO)S2)c(=O)n1 (stereo not given) + Cc1ccccc1N=Nc1ccc(NC(=O)c2ccnn2C)c(C)c1
Second compound 0.1 µM
  IC50: > 0.3 µM
Second compound 0.316 µM
  IC50: > 0.3 µM
Second compound 1 µM
  IC50: > 0.3 µM
Second compound 3.16 µM
  IC50: > 0.3 µM
Second compound 10 µM
  IC50: > 0.3 µM
Second compound 0.1 µM, first compound 0.000949 µM
  viability, T/C: 91.9%
Second compound 0.1 µM, first compound 0.003 µM
  viability, T/C: 103%
Second compound 0.1 µM, first compound 0.00949 µM
  viability, T/C: 87.7%
Second compound 0.1 µM, first compound 0.03 µM
  viability, T/C: 108%
Second compound 0.1 µM, first compound 0.0949 µM
  viability, T/C: 109%
Second compound 0.1 µM, first compound 0.3 µM
  viability, T/C: 111%
Second compound 0.316 µM, first compound 0.000949 µM
  viability, T/C: 99.1%
Second compound 0.316 µM, first compound 0.003 µM
  viability, T/C: 114%
Second compound 0.316 µM, first compound 0.00949 µM
  viability, T/C: 96.3%
Second compound 0.316 µM, first compound 0.03 µM
  viability, T/C: 107%
Second compound 0.316 µM, first compound 0.0949 µM
  viability, T/C: 105%
Second compound 0.316 µM, first compound 0.3 µM
  viability, T/C: 84.7%
Second compound 1 µM, first compound 0.000949 µM
  viability, T/C: 110%
Second compound 1 µM, first compound 0.003 µM
  viability, T/C: 114%
Second compound 1 µM, first compound 0.00949 µM
  viability, T/C: 95%
Second compound 1 µM, first compound 0.03 µM
  viability, T/C: 114%
Second compound 1 µM, first compound 0.0949 µM
  viability, T/C: 116%
Second compound 1 µM, first compound 0.3 µM
  viability, T/C: 101%
Second compound 3.16 µM, first compound 0.000949 µM
  viability, T/C: 101%
Second compound 3.16 µM, first compound 0.003 µM
  viability, T/C: 108%
Second compound 3.16 µM, first compound 0.00949 µM
  viability, T/C: 107%
Second compound 3.16 µM, first compound 0.03 µM
  viability, T/C: 107%
Second compound 3.16 µM, first compound 0.0949 µM
  viability, T/C: 109%
Second compound 3.16 µM, first compound 0.3 µM
  viability, T/C: 107%
Second compound 10 µM, first compound 0.000949 µM
  viability, T/C: 104%
Second compound 10 µM, first compound 0.003 µM
  viability, T/C: 99.3%
Second compound 10 µM, first compound 0.00949 µM
  viability, T/C: 107%
Second compound 10 µM, first compound 0.03 µM
  viability, T/C: 113%
Second compound 10 µM, first compound 0.0949 µM
  viability, T/C: 94.8%
Second compound 10 µM, first compound 0.3 µM
  viability, T/C: 99.3%

## Nc1ccn(C2OC(CO)C(O)C2(F)F)c(=O)n1 (stereo not given) + Cc1cncc(-c2nc(NCCc3c[nH]c4ccccc34)c3ncn(C(C)C)c3n2)c1
Second compound 0.1 µM
  IC50: 1.78 µM
Second compound 0.316 µM
  IC50: 0.768 µM
Second compound 1 µM
  IC50: > 10 µM
Second compound 3.16 µM
  IC50: 2.97 µM
Second compound 10 µM
  IC50: > 10 µM
[1]
  viability, T/C: 95.4%
[2]
  viability, T/C: 72%
[3]
  viability, T/C: 71.8%
[4]
  viability, T/C: 50.5%
[5]
  viability, T/C: 41.4%
[6]
  viability, T/C: 47.2%
[7]
  viability, T/C: 76.5%
[8]
  viability, T/C: 82.7%
[9]
  viability, T/C: 68%
[10]
  viability, T/C: 45.4%
[11]
  viability, T/C: 40.1%
[12]
  viability, T/C: 45.9%
[13]
  viability, T/C: 84.8%
[14]
  viability, T/C: 81.7%
[15]
  viability, T/C: 64%
[16]
  viability, T/C: 57.6%
[17]
  viability, T/C: 43.9%
[18]
  viability, T/C: 61.9%
[19]
  viability, T/C: 74.5%
[20]
  viability, T/C: 75.2%
[21]
  viability, T/C: 69.2%
[22]
  viability, T/C: 60.1%
[23]
  viability, T/C: 38.6%
[24]
  viability, T/C: 60.2%
[25]
  viability, T/C: 52.6%
[26]
  viability, T/C: 44.9%
[27]
  viability, T/C: 56%
[28]
  viability, T/C: 47.3%
[29]
  viability, T/C: 53%
[30]
  viability, T/C: 51.9%

## COc1ccc([C@@H](O)c2cc(-c3ncnc4cc(N5CCOCC5)ccc34)c(F)cc2Cl)nn1 + CC(CO)NC(=O)c1cc(-c2ccc(Cl)cc2)nn(-c2cnn(C)c2)c1=O
Second compound 0.1 µM
  IC50: > 10 µM
Second compound 0.316 µM
  IC50: > 10 µM
Second compound 1 µM
  IC50: > 10 µM
Second compound 3.16 µM
  IC50: > 10 µM
Second compound 10 µM
  IC50: > 10 µM
[1]
  viability, T/C: 104%
[2]
  viability, T/C: 96%
[3]
  viability, T/C: 88.8%
[4]
  viability, T/C: 87%
[5]
  viability, T/C: 92.8%
[6]
  viability, T/C: 84.7%
[7]
  viability, T/C: 108%
[8]
  viability, T/C: 99.1%
[9]
  viability, T/C: 89.7%
[10]
  viability, T/C: 83%
[11]
  viability, T/C: 75.6%
[12]
  viability, T/C: 75.3%
[13]
  viability, T/C: 96.2%
[14]
  viability, T/C: 86.5%
[15]
  viability, T/C: 76.8%
[16]
  viability, T/C: 86.4%
[17]
  viability, T/C: 73.9%
[18]
  viability, T/C: 74.8%
[19]
  viability, T/C: 98.3%
[20]
  viability, T/C: 86.3%
[21]
  viability, T/C: 84.7%
[22]
  viability, T/C: 88.2%
[23]
  viability, T/C: 69.5%
[24]
  viability, T/C: 78.2%
[25]
  viability, T/C: 90.9%
[26]
  viability, T/C: 83.8%
[27]
  viability, T/C: 66.8%
[28]
  viability, T/C: 75.2%
[29]
  viability, T/C: 77%
[30]
  viability, T/C: 76.9%
